US20220104493A1, “HERBICIDAL COMPOUNDS” (SYNGENTA CROP PROTECTION AG, priority 2019, published 2022)

Key:
Assay in all cases: Post-emergence efficacy, Method A
Assay type in all cases: in vivo
[1] = test system: Digitaria sanguinalis (DIGSA); conditions: 100=total damage to plant, 0=no damage, evaluated after 7 and 14 days, read-out: Control of weed species after post-emergence application, DIGSA
[2] = test system: Euphorbia heterophylla (EPHHL); conditions: 100=total damage to plant, 0=no damage, evaluated after 7 and 14 days, read-out: Control of weed species after post-emergence application, EPHHL
[3] = test system: Ipomoea hederacea (IPOHE); conditions: 100=total damage to plant, 0=no damage, evaluated after 7 and 14 days, read-out: Control of weed species after post-emergence application, IPOHE
[4] = test system: Lolium perenne (LOLPE); conditions: 100=total damage to plant, 0=no damage, evaluated after 7 and 14 days, read-out: Control of weed species after post-emergence application, LOLPE
[5] = test system: Chenopodium album (CHEAL); conditions: 100=total damage to plant, 0=no damage, evaluated after 7 and 14 days, read-out: Control of weed species after post-emergence application, CHEAL
[6] = test system: Amaranthus palmeri (AMAPA); conditions: 100=total damage to plant, 0=no damage, evaluated after 7 and 14 days, read-out: Control of weed species after post-emergence application, AMAPA
[7] = test system: Eleusine indica (ELEIN); conditions: 100=total damage to plant, 0=no damage, evaluated after 7 and 14 days, read-out: Control of weed species after post-emergence application, ELEIN
[8] = test system: Setaria faberi (SETFA); conditions: 100=total damage to plant, 0=no damage, evaluated after 7 and 14 days, read-out: Control of weed species after post-emergence application, SETFA
[9] = test system: Echinochloa crus-galli (ECHCG); conditions: 100=total damage to plant, 0=no damage, evaluated after 7 and 14 days, read-out: Control of weed species after post-emergence application, ECHCG

| Structure (SMILES) | pest or weed control at 500 g/ha [1] | pest or weed control at 500 g/ha [2] | pest or weed control at 500 g/ha [3] | pest or weed control at 500 g/ha [4] | pest or weed control at 500 g/ha [5] | pest or weed control at 500 g/ha [6] | pest or weed control at 500 g/ha [7] | pest or weed control at 500 g/ha [8] | pest or weed control at 500 g/ha [9] | pest or weed control at 1000 g/ha ([1]; 1000 g/Ha) | pest or weed control at 1000 g/ha ([2]; 1000 g/Ha) | pest or weed control at 1000 g/ha ([3]; 1000 g/Ha) | pest or weed control at 1000 g/ha ([4]; 1000 g/Ha) | pest or weed control at 1000 g/ha ([5]; 1000 g/Ha) | pest or weed control at 1000 g/ha ([6]; 1000 g/Ha) | pest or weed control at 1000 g/ha ([7]; 1000 g/Ha) | pest or weed control at 1000 g/ha ([8]; 1000 g/Ha) | pest or weed control at 1000 g/ha ([9]; 1000 g/Ha) |
| --- | --- | --- | --- | --- | --- | --- | --- | --- | --- | --- | --- | --- | --- | --- | --- | --- | --- | --- |
| O=C(O)CC[n+]1ccc(-c2nc(O)ns2)cc1 [Compound A97, 3-[4-(3-hydroxy-1,2,4-thiadiazol-5-yl)pyridin-1-ium-1-yl]propanoic acid bromide] | 0% | 10% | 10% | 10% | 50% | 0% | 10% | 10% | 0% | – | – | – | – | – | – | – | – | – |
| O=C(O)C[n+]1ccc(-c2nccs2)cc1 [Compound A24] | 10% | 40% | 20% | 0% | 40% | 0% | 0% | 0% | 0% | – | – | – | – | – | – | – | – | – |
| O=S(=O)([O-])CCC[n+]1ccc(-c2cnsn2)cc1 [Compound A12] | – | – | – | – | – | – | – | – | – | 20% | 20% | 0% | 10% | 0% | 0% | 20% | 0% | 0% |
| O=S(=O)([O-])CCC[n+]1ccc(-c2nnco2)cc1 [Compound A17] | 40% | 50% | 20% | 0% | 70% | 70% | 10% | 40% | 30% | – | – | – | – | – | – | – | – | – |
| Nc1nnc(-c2cc[n+](CC(=O)O)cc2)s1 [Compound A94] | 30% | 30% | 10% | 10% | 40% | 30% | 40% | 10% | 20% | – | – | – | – | – | – | – | – | – |
| O=S(=O)([O-])C[n+]1ccc(-c2nc(C(F)(F)F)ns2)cc1 [Compound A85] | 100% | 100% | 100% | 90% | 90% | 100% | 100% | 100% | 100% | – | – | – | – | – | – | – | – | – |
| COC(=O)C[n+]1ccc(-c2nnco2)cc1 [Compound A16] | 40% | 20% | 20% | 0% | 0% | 0% | 10% | 30% | 20% | – | – | – | – | – | – | – | – | – |
| Cn1nnc(-c2cc[n+](CC(=O)O)cc2)n1 [Compound A34] | 0% | 0% | 0% | 0% | 0% | 70% | 0% | 0% | 0% | – | – | – | – | – | – | – | – | – |
| Cc1nnc(-c2cc[n+](CC(=O)O)cc2)s1 [Compound A95] | 10% | 10% | 10% | 0% | 30% | 40% | 60% | 10% | 20% | – | – | – | – | – | – | – | – | – |
| O=S(=O)([O-])CC[n+]1ccc(-c2cnns2)cc1 [Compound A19] | 30% | 50% | 50% | 30% | 50% | 100% | 30% | 40% | 40% | – | – | – | – | – | – | – | – | – |
| Cc1nc(-c2cc[n+](CCCS(=O)(=O)[O-])cc2)no1 [Compound A71] | 30% | 40% | 30% | 0% | 50% | 20% | 20% | 10% | 20% | – | – | – | – | – | – | – | – | – |
| O=S(=O)([O-])CC[n+]1ccc(-c2ncns2)cc1 [Compound A5, 2-[4-(1,2,4-thiadiazol-5-yl)pyridin-1-ium-1-yl]ethanesulfonate] | 70% | 100% | 70% | 70% | 90% | 100% | 80% | 60% | 40% | – | – | – | – | – | – | – | – | – |
| O=C(O)C[n+]1ccc(-c2ncns2)cc1 [Compound A6] | 70% | 100% | 80% | 30% | 100% | 100% | 90% | 80% | 90% | – | – | – | – | – | – | – | – | – |
| O=S(=O)([O-])OCC[n+]1ccc(-c2nnco2)cc1 [Compound A64] | 30% | 30% | 20% | 10% | 30% | 50% | 20% | 20% | 50% | – | – | – | – | – | – | – | – | – |
| Cn1nnnc1-c1cc[n+](CC(=O)O)cc1 [Compound A33] | 20% | 40% | 0% | 0% | 40% | 90% | 20% | 0% | 0% | – | – | – | – | – | – | – | – | – |
| O=C(O)C[n+]1ccc(-c2ccns2)cc1 [Compound A86] | 10% | 40% | 10% | 0% | 10% | 40% | 20% | 10% | 20% | – | – | – | – | – | – | – | – | – |
| O=C(O)CC[n+]1ccc(-c2ncno2)cc1 [Compound A14] | 50% | 30% | 20% | 10% | 70% | 100% | 40% | 60% | 50% | – | – | – | – | – | – | – | – | – |
